Measurements taken from patent US20260217693A1, “SRPK1 INHIBITORS AND METHODS OF USE” (ALLIANTHERA (SUZHOU) BIOPHARMACEUTICAL CO., LTD., priority 2023, published 2026).

The compounds below were run against T1, SRPK1 (Homo sapiens, UniProt Q96SB4) (assay: SRPK1 assay, Method 1 (ADP-Glo luminescence)). Details: Method 1 (no asterisk): substrate Human SRSF1/SF2, 25° C. for 90 min, test compounds 30 μM top, 3-fold, duplicate.
Format: biochemical
Description: (§1) The SPRK1 assay was performed as follows:
Method 1: The assay buffer was prepared. The reference compound was diluted to 10 mM. The test compounds were prepared at a concentration of 30 mM. Fifteen nL of compounds/DMSO were transferred to a multi-well plate. Then, 7.5 ul enzyme SRPK1 was added to each well, the plate was spun down at 1000 rpm and centrifuged for 30 sec. Then, 7.5 ul substrate Human SRSF1/SF2 was added to each well, the plate spun down at 1000 rpm and centrifuged for 30 sec. The plate was then incubated at 25° C. for 90 min. After 90 min, 5 μl of ADP-Glo™ Reagent was added to each well and the plate incubated at room temperature for 60 minutes. Then, 10 μl of Kinase Detection Reagent was added to each well and the plate incubate at room temperature for 60 minutes. The luminescence of each well was recorded on Envision. The test compounds were at 30 μM top, 3-fold, in duplicate, and the final concentration of DMSO was 0.1%.
All assays were performed using Method 1, except where indicated with an asterisk (*) in the below table, indicating Method 2 was used.

T1 sequence (Q96SB4 whole entry): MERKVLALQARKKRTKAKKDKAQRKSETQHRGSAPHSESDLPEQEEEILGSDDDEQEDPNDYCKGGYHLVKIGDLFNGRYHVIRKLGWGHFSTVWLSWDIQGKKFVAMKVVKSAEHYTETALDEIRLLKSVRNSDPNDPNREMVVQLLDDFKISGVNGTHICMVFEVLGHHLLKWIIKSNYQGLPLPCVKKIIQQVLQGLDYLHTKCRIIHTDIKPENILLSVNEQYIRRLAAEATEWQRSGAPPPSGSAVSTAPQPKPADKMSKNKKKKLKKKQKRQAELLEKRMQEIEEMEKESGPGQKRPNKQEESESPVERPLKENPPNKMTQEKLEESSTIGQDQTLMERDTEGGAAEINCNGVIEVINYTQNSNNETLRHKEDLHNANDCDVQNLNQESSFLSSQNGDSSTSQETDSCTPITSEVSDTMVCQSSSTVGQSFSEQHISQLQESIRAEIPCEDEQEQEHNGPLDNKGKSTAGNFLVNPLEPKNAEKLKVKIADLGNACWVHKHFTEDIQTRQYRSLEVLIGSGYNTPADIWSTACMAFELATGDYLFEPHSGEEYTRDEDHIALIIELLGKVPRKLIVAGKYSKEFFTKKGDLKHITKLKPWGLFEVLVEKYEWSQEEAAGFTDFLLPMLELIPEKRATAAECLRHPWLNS

SMILES	IC50 [µM]
O=C1C=C(c2ccc(C(=O)Nc3cc(C(F)(F)F)cnc3N3CCC(O)CC3)o2)CCO1 [Compound 102]	0.34
O=C(Nc1cc(C(F)(F)F)cnc1N1CCC(O)CC1)c1ccc(C2CCNCC2)o1 [Compound 061]	8.2
C[C@@H]1C[C@@H](O)CCN1c1ncc(C(F)(F)F)cc1NC(=O)c1ccc(-c2cn[nH]c2)o1 [Compound 113]	> 30
O=C(Nc1cc(C(F)(F)F)cnc1N1CCCCC1)c1ccc(C2CCOCC2)o1 [Compound 036]	> 30
CC1(O)CCCN(c2ncc(C(F)(F)F)cc2NC(=O)C2CCC(C3CCOCC3)O2)CC1 (centres unmarked) [Compound 058]	15.7
CC1(O)CCN(c2ncc(C(F)(F)F)cc2NC(=O)c2ccc(C3CCOCC3)o2)CC1 [Compound 027, N-[2-(4-hydroxy-4-methyl-1-piperidyl)-5-(trifluoromethyl)-3-pyridyl]-5-tetrahydropyran-4-yl-furan-2-carboxamide]	0.0367
CNC(=O)C1(C)CCN(c2ncc(C(F)(F)F)cc2NC(=O)c2ccc(C3CCOCC3)o2)CC1 [Compound 057]	0.0305
CN1CCC2(CCN(c3ncc(C(F)(F)F)cc3NC(=O)c3ccc(C4CCOCC4)o3)CC2)C1=O [Compound 030]	0.232
CN(C)C(=O)C1(C)CCN(c2ncc(C(F)(F)F)cc2NC(=O)c2ccc(C3CCOCC3)o2)CC1 [Compound 045]	0.0845
C#Cc1ccc(C(=O)Nc2cc(C(F)(F)F)cnc2N2CCC(O)CC2)o1 [Compound 117]	> 30
Nc1n[nH]cc1-c1ccc(C(=O)Nc2cc(C(F)(F)F)cnc2N2CCC(O)CC2)o1 [Compound 106, 5-(3-amino-1H-pyrazol-4-yl)-N-[2-(4-hydroxy-1-piperidyl)-5-(trifluoromethyl)-3-pyridyl]furan-2-carboxamide]	0.142
O=C(Nc1cc(C(F)(F)F)cnc1N1CCc2n[nH]cc2C1)c1ccc(C2CCOCC2)o1 [Compound 078]	0.0279
O=C(Nc1cc(C(F)(F)F)cnc1N1CCC(O)CC1)c1cccnc1 [Compound 051]	> 30
O=C(Nc1cc(C(F)(F)F)cnc1N1CCSCC1)c1ccc(C2CCOCC2)o1 [Compound 041]	> 30
O=C(Nc1cc(C(F)(F)F)cnc1-c1cncnc1)c1ccc(C2CCOCC2)o1 [Compound 013]	14.7
CC(=O)OC1CCN(c2ncc(C3CC3)cc2NC(=O)c2ccc(C3CCOCC3)o2)CC1 [Compound 028]	0.105
O=C(Nc1cc(C(F)(F)F)cnc1N1CCC2(CCOC2=O)CC1)c1ccc(C2CCOCC2)o1 [Compound 082]	0.0555
C[C@@H]1C[C@H](O)CCN1c1ncc(C2CC2)cc1NC(=O)c1ccc(-c2cn[nH]c2)o1 [Compound 127]	> 30
O=C(Nc1cc(C(F)(F)F)cnc1N1CCC(O)CC1)c1ccccn1 [Compound 047]	0.26
O=C(Nc1cc(C(F)(F)F)cnc1N1CCC(O)CC1)c1ccc(-c2ccnc(F)c2)o1 [Compound 016]	> 30
CC1(O)CCN(c2ncc(Cl)cc2NC(=O)c2ccc(-c3ccncc3)o2)CC1 [Compound 024]	0.346
O=C(Nc1cc(C(F)(F)F)cnc1N1CCOCC1)c1ccc(C2CCOCC2)o1 [Compound 037]	> 30
O=C(Nc1cc(C(F)(F)F)cnc1-c1ccn[nH]1)c1ccc(C2CCOCC2)o1 [Compound 019]	0.217
C[C@@H]1C[C@@H](O)CCN1c1ncc(C(F)(F)F)cc1NC(=O)c1ccc(-c2ccnc(N)c2)o1 [Compound 114]	> 30

SMILES	IC50 [µM]
O=C(Nc1cc(C2CC2)cnc1N1CCC(O)CC1)c1ccc(-c2ccncc2)o1 [Compound 034]	0.0248
O=C(Nc1cc(C(F)(F)F)cnc1N1CCc2[nH]ncc2C1)c1ccc(Br)o1 [Compound 115]	> 30
C[C@@H]1C[C@H](O)CCN1c1ncc(C2CC2)cc1NC(=O)c1ccc(Br)o1 [Compound 126]	> 30
O=C1CC2(CCN(c3ncc(C(F)(F)F)cc3NC(=O)c3ccc(C4CCOCC4)o3)CC2)C1 [Compound 065, N-(2-(2-oxo-7-azaspiro[3.5]nonan-7-yl)-5-(trifluoromethyl)pyridin-3-yl)-5-(tetrahydro-2H-pyran-4-yl) furan-2-carboxamide]	0.204
COc1ccc(C(=O)Nc2cc(C(F)(F)F)cnc2N2CCC(O)CC2)nc1 [Compound 090]	1.38
CN1CCC(c2ncc(C(F)(F)F)cc2NC(=O)c2ccc(C3CCOCC3)o2)CC1 [Compound 071, N-(2-(1-methylpiperidin-4-yl)-5-(trifluoromethyl)pyridin-3-yl)-5-(tetrahydro-2H-pyran-4-yl) furan-2-carboxamide]	6.87
C[C@H]1C[C@@H](O)CCN1c1ncc(C(F)(F)F)cc1NC(=O)c1ccc(C2CCOCC2)o1 [Compound 075]	0.0131
O=C(Nc1cc(C(F)(F)F)cnc1N1CCC(O)CC1)c1ccc(-c2c[nH]cn2)o1 [Compound 104]	0.556
C[C@@H]1C[C@H](O)CCN1c1ncc(C(F)(F)F)cc1NC(=O)c1ccc(-c2ccnc(N)c2)o1 [Compound 111]	0.0394
O=C(Nc1cc(C(F)(F)F)cnc1N1CCC(O)CC1)c1ccc(-c2cncnc2)o1 [Compound 063]	13.5
O=C(Nc1cc(C2CC2)cnc1N1CCC(O)CC1)c1ccc(C2CCOCC2)o1 [Compound 029]	0.0309
O=C(Nc1cc(C(F)(F)F)cnc1N1CCC(O)CC1)c1ccc(-c2cc[nH]n2)o1 [Compound 084]	0.0607
NC(=O)C1CCN(c2ncc(C(F)(F)F)cc2NC(=O)c2ccc(C3CCOCC3)o2)CC1 [Compound 088]	0.0717
O=C(Nc1cc(C(F)(F)F)cnc1-c1cn[nH]c1)c1ccc(C2CCOCC2)o1 [Compound 012]	0.109
CC1(CN)CCN(c2ncc(C(F)(F)F)cc2NC(=O)c2ccc(C3CCOCC3)o2)CC1 [Compound 043]	> 30
O=C(Nc1cc(Cl)cnc1N1CCC(O)CC1)c1ccc(C2CCOCC2)o1 [Compound 007]	0.252
O=C(Nc1cc(C(F)(F)F)cnc1N1CCC(O)CC1)c1cc(Cl)ccn1 [Compound 091]	> 30
O=C(Nc1cc(C(F)(F)F)cnc1N1CCC(O)CC1)c1cnn(C2CCOCC2)c1 [Compound 101]	> 30
CC(=O)N1CCN(c2ncc(C(F)(F)F)cc2NC(=O)c2ccc(C3CCOCC3)o2)CC1 [Compound 085]	2.05
Cn1cc(-c2ncc(C(F)(F)F)cc2NC(=O)c2ccc(C3CCOCC3)o2)cn1 [Compound 011]	7.49
CC(=O)OC1CCN(c2ncc(C(F)(F)F)cc2NC(=O)c2ccc(-c3ccnnc3)o2)CC1 [Compound 049]	2.34
O=C(Nc1cc(C(F)(F)F)cnc1N1CCC(O)CC1)c1ccn(C2CCOCC2)n1 [Compound 103]	0.136
O=C(Nc1cc(C(F)(F)F)cnc1N1CCC(O)CC1)c1ccc(Cl)cn1 [Compound 093]	1.26
O=C(Nc1cc(C(F)(F)F)cnc1N1CCC(O)CC1)c1ccncc1 [Compound 046, N-[2-(4-hydroxy-1-piperidyl)-5-(trifluoromethyl)-3-pyridyl]pyridine-4-carboxamide]	> 30

These compounds were tested against T1, SRPK1 (assay: SRPK1 assay, Method 2 (ADP-Glo luminescence)). Details: Method 2 (asterisk): substrate Human SRSF1/SF2 0.15 μM, ATP 4 μM, 25° C. for 3 h, test compounds 100 nM top, 3-fold, 10 dose.
Format: biochemical
Description: as §1
Method 2: The assay buffer was prepared. The reference compound was diluted to 1 mM in the assay buffer. The test compounds were prepared at a concentration of 100 μM, then diluted 3-fold. Five nL of compounds/DMSO were transferred to 384-well plate. The reference compound is 1000 nM top concentration, 3-fold, 10 dose. The test compounds are 100 nM top concentration, 3-fold, 10 dose. 2.5 ul of enzyme (SRPK1 final concentration at […]) was added to each well, then the plate was spun down at 1000 rpm and centrifuged for 30 sec. After, 2.5 ul substrate (Human SRSF1/SF2 final concentration of 0.15 μM, ATP final concentration of 4 μM) was added to the plate, spun down at 1000 rpm and centrifuged for 30 sec. The plate was then placed in an incubator at 25° C. for 3 h. Then, 5 μl of ADP-Glo™ Reagent was added to each well, and the plate incubated at room temperature for 60 minutes. After 60 min, 10 μl of Kinase Detection Reagent was added to each well, and the plate was incubated at room temperature for 30 minutes. The luminescence of each well was recorded on Envision.
All assays were performed using Method 1, except where indicated with an asterisk (*) in the below table, indicating Method 2 was used. I.A. indicates an IC50 greater than 30 μM.

SMILES	IC50 [µM]
Nc1cc(-c2ccc(C(=O)Nc3cc(C4CC4)cnc3N3CCC(O)CC3)o2)ccn1 [Compound 018]	0.000942
O=C(Nc1cc(C2CC2)cnc1N1CCC(O)CC1)c1ccc(-c2ccnc(O)c2)o1 [Compound 022]	0.0014
CC1(O)CCN(c2ncc(C3CC3)cc2NC(=O)c2ccc(-c3cn[nH]c3)o2)CC1 [Compound 095, N-[5-cyclopropyl-2-(4-hydroxy-4-methyl-1-piperidyl)-3-pyridyl]-5-(1H-pyrazol-4-yl) furan-2-carboxamide]	0.000769
O=C(Nc1cc(C(F)(F)F)cnc1N1CCC(O)CC1)c1ccc(-c2cn[nH]c2)cn1 [Compound 097, N-[2-(4-hydroxy-1-piperidyl)-5-(trifluoromethyl)-3-pyridyl]-5-(1H-pyrazol-4-yl)pyridine-2-carboxamide]	0.00323
O=C(Nc1cc(C(F)(F)F)cnc1N1CCC(O)CC1)c1ccc(-c2cn[nH]c2)o1 [Compound 053]	0.00198
CC1(C(N)=O)CCN(c2ncc(C(F)(F)F)cc2NC(=O)c2ccc(C3CCOCC3)o2)CC1 [Compound 048]	0.0249
Nc1cc(-c2ccc(C(=O)Nc3cc(C4CC4)cnc3N3CCC(O)CC3)o2)cc(N)n1 [Compound 020]	0.000248
Nc1cc(-c2ccc(C(=O)Nc3cc(C(F)(F)F)cnc3N3CCC(O)CC3)o2)ccn1 [Compound 015]	0.00398
